The values that follow come from US20240279214A1, “ALPHA4 BETA7 INEGRIN ANTAGONISTS AND USES THEREOF” (XinThera, Inc., priority 2022, published 2024).

In the test the target is T1, a4b7 integrin interaction with MadCAM-1 (Homo sapiens, UniProt P13612+P26010).
T1 construct: capture of a4b7 integrin expressing cells, RPMI8866; endogenous in cells; host or cells: RPMI8866
T1 sequence (P13612 34-1032): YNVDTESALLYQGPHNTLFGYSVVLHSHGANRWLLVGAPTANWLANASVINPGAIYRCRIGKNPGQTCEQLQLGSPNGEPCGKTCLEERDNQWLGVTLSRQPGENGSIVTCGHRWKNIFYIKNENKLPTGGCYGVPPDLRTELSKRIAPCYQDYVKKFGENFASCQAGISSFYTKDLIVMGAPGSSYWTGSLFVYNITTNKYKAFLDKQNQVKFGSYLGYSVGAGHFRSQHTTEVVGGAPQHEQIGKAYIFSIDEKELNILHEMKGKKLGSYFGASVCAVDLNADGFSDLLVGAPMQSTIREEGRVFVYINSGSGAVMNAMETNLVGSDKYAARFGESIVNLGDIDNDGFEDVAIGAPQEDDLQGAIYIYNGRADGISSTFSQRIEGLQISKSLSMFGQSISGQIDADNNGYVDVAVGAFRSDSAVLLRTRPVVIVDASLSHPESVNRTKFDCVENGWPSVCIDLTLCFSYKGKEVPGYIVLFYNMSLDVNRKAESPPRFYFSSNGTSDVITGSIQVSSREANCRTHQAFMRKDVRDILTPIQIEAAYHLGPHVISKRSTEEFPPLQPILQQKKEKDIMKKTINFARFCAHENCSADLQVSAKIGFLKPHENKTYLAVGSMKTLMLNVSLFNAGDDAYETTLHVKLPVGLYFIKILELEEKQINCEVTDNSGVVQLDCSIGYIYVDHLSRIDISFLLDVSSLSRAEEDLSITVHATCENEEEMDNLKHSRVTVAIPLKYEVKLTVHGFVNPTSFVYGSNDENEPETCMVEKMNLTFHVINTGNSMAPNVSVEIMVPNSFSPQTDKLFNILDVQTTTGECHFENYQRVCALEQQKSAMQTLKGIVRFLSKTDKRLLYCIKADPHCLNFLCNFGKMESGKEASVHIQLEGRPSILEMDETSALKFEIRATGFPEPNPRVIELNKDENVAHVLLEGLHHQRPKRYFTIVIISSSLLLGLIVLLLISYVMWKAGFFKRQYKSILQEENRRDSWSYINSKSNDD
T1 sequence (P26010 20-798): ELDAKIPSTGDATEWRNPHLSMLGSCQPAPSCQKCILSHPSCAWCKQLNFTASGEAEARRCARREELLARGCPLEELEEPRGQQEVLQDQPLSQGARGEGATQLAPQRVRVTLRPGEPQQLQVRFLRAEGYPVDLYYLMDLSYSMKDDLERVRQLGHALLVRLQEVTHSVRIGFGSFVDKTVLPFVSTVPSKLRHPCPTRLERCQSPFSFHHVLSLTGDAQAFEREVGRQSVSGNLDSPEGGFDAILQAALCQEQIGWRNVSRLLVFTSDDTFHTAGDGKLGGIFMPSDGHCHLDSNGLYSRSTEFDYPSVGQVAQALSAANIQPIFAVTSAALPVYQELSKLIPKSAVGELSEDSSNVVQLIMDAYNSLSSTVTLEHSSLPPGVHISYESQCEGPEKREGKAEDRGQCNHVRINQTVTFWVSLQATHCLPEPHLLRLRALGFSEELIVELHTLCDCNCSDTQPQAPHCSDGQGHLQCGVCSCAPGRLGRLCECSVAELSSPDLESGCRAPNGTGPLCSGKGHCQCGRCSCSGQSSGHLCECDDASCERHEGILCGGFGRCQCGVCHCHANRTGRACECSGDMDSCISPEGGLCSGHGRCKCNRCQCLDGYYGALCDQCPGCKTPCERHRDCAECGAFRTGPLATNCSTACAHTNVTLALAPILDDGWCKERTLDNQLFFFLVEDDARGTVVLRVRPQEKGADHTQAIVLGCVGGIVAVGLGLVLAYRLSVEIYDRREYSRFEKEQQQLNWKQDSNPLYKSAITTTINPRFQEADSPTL
In words: a4b7 Cell Capture Assay (RPMI8866 cells on MAdCAM-1 Fc coated plates). The test is classed as cell-based. The conditions noted are these: 50% human serum, 1 mM MgCl2, 1 hour incubation, CellTiter-Glo luminescence, read-out: a4B7 cell capture assay RMPI8866-MadCAM EC50. As for the experimental part:
The potency of inhibitors in preventing a4b7 integrin interaction with MadCAM-1 was measured by monitoring the capture of a4b7 integrin expressing cells, RPMI8866, on recombinant human MAdCAM-1 Fc chimera protein-coated plates. The protein was a fusion between human MAdCAM-1 (Met1-Gln333, Accession #AAY82472) and human IgG1 (Pro100-Lys330)] (R&D Systems, Catalog #6056-MC). 96-well plates (Thermofisher, Catalog #136102) were coated with the recombinant protein by dispensing 100 μL (1.0 μg/mL) per well. After a quick spin to settle down the coating solution using a plate centrifuge, plates were incubated overnight at 4° C. in a moisture chamber. On Day 2, the plates were washed with PBS using a Bluecatbio Blue®Washer (GentleSpin wash, 3 cycles, pressure=1, volume 150 uL). Blocking solution (1.0% BSA in PBS, Sigma, Catalog #A7979) was then added at 200 uL/well, and the plates were quickly spun to settle down blocking buffer and incubated in cell culture incubator at 37° C. and 5% CO2 for 1 hour. The plates were then washed with 0.1% BSA in PBS using a Bluecatbio Blue®Washer (GentleSpin wash, 3 cycles, pressure=1, volume 150 uL). RPMI8866 cells suspended in assay medium (1 mM MgCl2 25 mM HEPES and 50% human serum, Sigma, Catalog #H4522) at a density of 1.0×10^6 cells/mL were added at 100 uL/well. Each compound evaluated was prepared as a DMSO stock solution. Test compounds were evaluated with a 9-point serial dilution curve (1000, 333.3, 111.1, 55.6, 27.8, 13.9, 6.9, 2.3, and 0.77 nM)) and were added to the plates using a Tecan D.30e Digita dispenser, the dispensed stock is 100 nL and the final DMSO concentration is 0.1%. Potent compounds were re-evaluated at a new 9-point serial dilution curve (100, 33.3, 11.1, 5.6, 2.8, 1.4, 0.69, 0.23, and 0.08 nM). Each titration curves were performed in triplicate on the same plate, and most of compounds were retested in different dates multiple times. The plates were shaken at 300 rpm on orbital plate shaker for 3 minutes to mix the cells and compounds, quickly spun to settle the cells and solution, and incubated in cell culture incubator at 37° C. and 5% CO2. After 1 hour incubation, the unbound cells were washed away with RPMI1640 medium supplemented with 1 mM MgCl2 and 1% BSA) (wash buffer) using a Bluecatbio Blue®Washer (MagbeadsSpin wash, 1 cycle, pressure 1, volume=150 uL). After wash buffer removal, A mixture of wash buffer/CellTiter-Glo® Reagent (Pormega, catalog #G7573) at 1:1 (V/V) was added at volume of 100 uL to each well. The plates were placed in a chamber at 25° C. and incubated for 30 minutes. Luminescence was recorded using a Envision plate reader 2105 according to CellTiter-Glo protocol.
The mean luminescence signals from negative control wells without MadCAM-1 coating and compound treatment (cells only) was defined as 100% binding inhibition, and the mean luminescence signals from positive control wells with MadCAM-1 coating but without compound treatment (MadCAM-1 and cells only) was defined as 0% binding inhibition. The luminescence signals from other compound treated wells were normalized in percentage scale accordingly. The normalized mean % inhibition data were plotted against logarithmic compound concentration in nanomolar and were fitted with 4-parameter logistic model to obtain IC50 for each compound.
In the case of `Cc1cccc2c1-c1cc(C3CC3)c(F)c(c1)[C@H](CC(=O)O)NC(=O)[C@@H](n1cc(CCN3CC(F)C3)c(C(F)(F)F)cc1=O)c1cc(ccc1F)O2` (relative stereo) [Example 24, [(14R*,17S)-20-cyclopropyl-12,19-difluoro-14-{5-[2-(3-fluoroazetidin-1-yl)ethyl]-2-oxo-4-(trifluoromethyl)pyridin-1-yl}-3-methyl-15-oxo-8-oxa-16-azatetracyclo[16.3.1.1^{9,13}.0^{2,7}]tricosa-1(22),2(7),3,5,9,11,13(23),18,20-nonaen-17-yl]acetic acid], the EC50 was 1.9 nM.
As for `Cc1cccc2c1-c1cc(Cl)c(F)c(c1)[C@H](CC(=O)O)NC(=O)[C@@H](n1cc(CCN3CC(F)C3)c(C(F)(F)F)cc1=O)c1cc(ccc1F)O2` (relative stereo) [Example 25, [(14R*,17S)-20-chloro-12,19-difluoro-14-{5-[2-(3-fluoroazetidin-1-yl)ethyl]-2-oxo-4-(trifluoromethyl)pyridin-1-yl}-3-methyl-15-oxo-8-oxa-16-azatetracyclo[16.3.1.1^{9,13}.0^{2,7}]tricosa-1(22),2(7),3,5,9,11,13(23),18,20-nonaen-17-yl]acetic acid], the EC50 is 2 nM.
For the compound `Cc1cc2cc(c1F)[C@H](CC(=O)O)NC(=O)[C@@H](n1cc(CCN3CC(F)C3)c(C(F)(F)F)cc1=O)c1cc(ccc1F)Oc1cc(F)cc(C)c1-2` (relative stereo) [Example 26, [(14R*,17S)-5,12,19-trifluoro-14-{5-[2-(3-fluoroazetidin-1-yl)ethyl]-2-oxo-4-(trifluoromethyl)pyridin-1-yl}-3,20-dimethyl-15-oxo-8-oxa-16-azatetracyclo[16.3.1.1^{9,13}.0^{2,7}]tricosa-1(22),2(7),3,5,9,11,13(23),18,20-nonaen-17-yl]acetic acid], the EC50 amounted to 1.3 nM.
In the case of `Cc1cc(C)c2c(c1)Oc1ccc(F)c(c1)[C@H](n1cc(CCN3CC(F)C3)c(C(F)(F)F)cc1=O)C(=O)N[C@@H](CC(=O)O)c1cc-2cc(C)c1F` (relative stereo) [Example 27, [(14R*,17S)-12,19-difluoro-14-{5-[2-(3-fluoroazetidin-1-yl)ethyl]-2-oxo-4-(trifluoromethyl)pyridin-1-yl}-3,5,20-trimethyl-15-oxo-8-oxa-16-azatetracyclo[16.3.1.1^{9,13}.0^{2,7}]tricosa-1(22),2(7),3,5,9,11,13(23),18,20-nonaen-17-yl]acetic acid], the 50% effective concentration (EC50) was 3.7 nM.
As for `Cc1cc2cc(c1F)[C@H](CC(=O)O)NC(=O)[C@@H](n1cc(CCN3CC(F)C3)c(C(F)(F)F)cc1=O)c1cc(ccc1F)Oc1cccc(C(F)(F)F)c1-2` (relative stereo) [Example 28, [(14R*,17S)-12,19-difluoro-14-{5-[2-(3-fluoroazetidin-1-yl)ethyl]-2-oxo-4-(trifluoromethyl)pyridin-1-yl}-20-methyl-15-oxo-3-(trifluoromethyl)-8-oxa-16-azatetracyclo[16.3.1.1^{9,13}.0^{2,7}]tricosa-1(22),2(7),3,5,9,11,13(23),18,20-nonaen-17-yl]acetic acid], the concentration for a half-maximal effect (EC50) came to 19 nM.
Turning to `Cc1cc2cc(c1F)[C@H](CC(=O)O)NC(=O)[C@@H](n1cc(CCN(C)C)c(C(F)(F)F)cc1=O)c1cc(ccc1F)Oc1cccc(C)c1-2` (relative stereo) [Example 29, [(14R*,17S)-14-{5-[2-(dimethylamino)ethyl]-2-oxo-4-(trifluoromethyl)pyridin-1-yl}-12,19-difluoro-3,20-dimethyl-15-oxo-8-oxa-16-azatetracyclo[16.3.1.1^{9,13}.0^{2,7}]tricosa-1(22),2(7),3,5,9,11,13(23),18,20-nonaen-17-yl]acetic acid], the EC50 came out at 0.07 nM.
Turning to `Cc1cc2cc(c1F)[C@H](CC(=O)O)NC(=O)[C@@H](n1cc(CCN3CC(F)C3)c(C(F)(F)F)cc1=O)c1cc(ccc1F)Oc1ccc(F)c(C)c1-2` (relative stereo) [Example 30, [(14R*,17S)-4,12,19-trifluoro-14-{5-[2-(3-fluoroazetidin-1-yl)ethyl]-2-oxo-4-(trifluoromethyl)pyridin-1-yl}-3,20-dimethyl-15-oxo-8-oxa-16-azatetracyclo[16.3.1.1^{9,13}.0^{2,7}]tricosa-1(22),2(7),3,5,9,11,13(23),18,20-nonaen-17-yl]acetic acid], the EC50 was 2.6 nM.
As to `Cc1cccc2c1-c1cc(F)c(F)c(c1)[C@H](CC(=O)O)NC(=O)[C@@H](n1cc(CCN3CC(F)C3)c(C(F)(F)F)cc1=O)c1cc(ccc1F)O2` (relative stereo) [Example 31, [(14R*,17S)-12,19,20-trifluoro-14-{5-[2-(3-fluoroazetidin-1-yl)ethyl]-2-oxo-4-(trifluoromethyl)pyridin-1-yl}-3-methyl-15-oxo-8-oxa-16-azatetracyclo[16.3.1.1^{9,13}.0^{2,7}]tricosa-1(22),2(7),3,5,9,11,13(23),18,20-nonaen-17-yl]acetic acid], the EC50 turned out to be 1.9 nM.
